Test system: rats subjected to a central fluid percussion injury
Assay: Morris water maze after central fluid percussion injury (traumatic brain injury model)
Assay type: in vivo, rat
Protocol: As shown in the graph, administration of nefiracetam at 3 mg/kg and 9 mg/kg were tested against a control group treated only with the pharmacological carrier ([…]). The rats were subjected to a central fluid percussion injury, which is a typical animal model for traumatic brain injury. Beginning one day after the injury, the rats were subjected to daily oral drug administrations at the 3 and 9 mg/kg dosage levels. The administration solutions contained the nefiracetam in […] at a concentration sufficient to provide the required dosage level in a single 1 ml/kg dosage of solution. The rats were then tested in the Morris water maze on days 11-15 after injury. On the days that the rats were tested, the drug was administered 15 minutes prior to testing. […] The improvement seen at the 9 mg/kg dosage correlates to a reduction in the cognitive deficit by 55% compared to the control.

## Cc1cccc(C)c1NC(=O)CN1CCCC1=O [nefiracetam, N-(2,6-dimethyl-phenyl)-2(2-oxo-1-pyrrolidinyl)acetamide]
3 mg/kg daily oral, days 11-15 after injury
  effectiveness in the water maze: not significantly effective
9 mg/kg daily oral from one day after injury, Morris water maze on days 11-15 after injury, drug 15 minutes prior to testing
  reduction in the cognitive deficit compared to the control: 55%
9 mg/kg daily oral, compared to the control and the 3 mg/kg dosage level, days 11-15 after injury
  improvement in brain function as measured by performance in the water maze: significant improvement
